Data as given in patent US20040082662A1, “Polyisoprenylbenzophenone derivatives, processes for their preparation and use thereof” (Aventis Pharma Deutschland Gmbh, priority 2002, published 2004).

Key:
[1] = tested on: Staphylococcus aureus; experiment: Test of the antibacterial activity (agar plate, antibiotic test sheets, inhibition halo); type: cell-based; settings: 16 hours at 37° C.
Protocol: For the test of the antibacterial action, agar plates containing 2 ml of Staphylococcus aureus sowing in 200 ml of agar solution were firstly prepared. Makandechamone was applied in a 1 mg/ml solution to antibiotic test sheets (Schleicher and Schüll) having a diameter of 6 mm and placed on the agar plate. The inoculated Staphylococcus plates were incubated for 16 hours at 37° C. Inhibition halos having the following diameters (mm) were then observed: […]

[2] = Stability (physicochemical properties); settings: neutral and acidic medium
Description: (§1) Stable in neutral and acidic medium.

[3] = Solubility (physicochemical properties)
Description: as §1

[4] = tested on: certain bee-pathogenic bacteria; settings: cited from earlier work
[5] = tested on: HIV; settings: cited from earlier work

C=C1CC(C)(C)CCC1CC12CC(CC=C(C)C)C(C)(C)C(C(=O)c3ccccc3)(C1=O)C(O)=C(CC=C(C)C)C2=O (stereo not drawn) [makandechamone]
Inhibition halo size ([1]; 10 μl of 1 mg/ml solution on 6 mm test sheet): 7 mm
Inhibition halo size ([1]; 20 μl of 1 mg/ml solution on 6 mm test sheet): 12 mm
Inhibition halo size ([1]; 40 μl of 1 mg/ml solution on 6 mm test sheet): 14 mm
Stability [2]: Stable
Solubility in medium polar and polar organic solvents ([3]; medium polar and polar organic solvents): soluble
Solubility in water ([3]; water): not very soluble

chamone I
Activity against certain bee-pathogenic bacteria [4]: active

guttiferone F
HIV-inhibitory action [5]: HIV-inhibitory action

nemorosome II
Activity against certain bee-pathogenic bacteria [4]: active
